Measured values taken from patent US11272841B2, “Indicator fluids, systems, and methods for assessing movement of substances within, to or from a cerebrospinal fluid, brain or spinal cord compartment of a cranio-spinal cavity of a human” (BRAINWIDESOLUTIONS AS, priority 2017, dated 2022).

Key:
[1] = Gadobutrol concentration in blood at time points after gadobutrol was present in CSF (FIG. 1e-h); assay type: in vivo, human
Excerpt: In test studies, the inventors measured concentrations of the indicator fluid gadobutrol in blood at different time points after indicator fluid was present in CSF. […] In FIG. 1e-h are provided examples of measurements of gadobutrol (indicator fluid) concentrations in blood. On the y-axis is shown the indicator fluid concentration level 119 in blood (i.e. concentration of gadobutrol measured in units mg/kg), and on x-axis the time 120 elapsed from gadobutrol was present within the CSF. The concentration level of gadobutrol was measured after different time points 120, including after 1-2 hours, 3-4 hours, 5-6 hours, 7-8 hours, 23-26 hours, and 46-49 hours, for different individuals.
With reference to FIG. 1e, trend plots of average values of gadobutrol concentrations in blood (mg/kg) are shown for individuals with intracranial hypotension 121 (symbol ♦; n=4), idiopathic intracranial hypertension 122 (symbol ●; n=1), idiopathic normal pressure hydrocephalus 123 (symbol ▴; n=1), cerebral cyst 124 (symbol O; n=4), and arachnoid cyst 125 (symbol ▪; n=4). The letter n refers to number of individuals within each group. […] Half-time of gadobutrol in blood is about 1.8 hours. It should be noted that the amount and time course of appearance of gadobutrol in blood differs for the various groups of individuals, related to the fact that the ability to remove substances from the cranio-spinal compartment varies between individuals. […] The concentrations may be determined after 24 or 48 hours or after any time point within 72 hours after the indicator fluid is present in CSF.
In FIG. 1f-h, the inventors provide some examples of measurements of indicator fluid (the MRI contrast agent gadobutrol) concentration level in blood at different time points after indicator fluid being present in CSF in three separate individuals. It should be noted that the invention gives no limitation regarding the method by which the blood concentration is measured. […]

[2] = Percentage change in normalized T1 signal unit ratios in FreeSurfer-segmented brain regions after intrathecal gadobutrol (Table 5, FIG. 14e-h); assay type: in vivo, human; settings: for Percentage change in signal unit ratios: mean ± SD
Excerpt: The alignment of longitudinal data is illustrated in FIG. 14c-d. When repeated MRIs are obtained proper alignment is necessary for use of segmentation tools. Otherwise, it is not possible to examine how signals within defined regions of interest change over time. […] The co-registered MRI 1409 show no good co-registration. In FIG. 14d is shown coronal T1 MRIs at Time 1 1410 and Time 2 1411, including co-registered MRIs 1412. In this latter case proper alignment is obtained. Methodology for alignment is established from prior art, as is methodology for segmentation of MRI acquisitions. The inventors have used the FreeSurfer software (version 6.0) (http://surfer.nmr.mgh.harvard.edu/) for segmentation and parcellation, and to measure how an indicator fluid present within CSF (the MRI contrast agent gadobutrol) changed the T1 SU. In this case, the MRI contrast agent was used as CSF tracer. The FreeSurfer software utilizes automated Talairach transformation 1402, and allows for segmentation of a wide range of brain regions, including the subcortical white matter and deep gray matter volumetric structures (including hippocampus, amygdala, caudate, putamen, ventricles).
Using prior art methodology for alignment and segmentation, changes in indication signals over time may be determined. This is further illustrated in Table 5. The results are from 8 individuals who underwent MRI for tentative idiopathic intracranial hypotension due to CSF leakage. A CSF leakage was identified in 3/8 individuals. Otherwise the individuals were healthy. Table 5 presents the percentage change in normalized T1 signals, i.e. indication signal ratios, over time, as compared to T1 weighted MRI without CSF tracer present. […] The MRI signal increase was significant at all main locations (Table 5). The determination of signal unit ratios was described with reference to FIG. 7.
Each image acquisition lasted 6 minutes and 29 seconds.
The inventors determined percentage change in signal units when indicator fluid was present in the CSF compartment, as compared to a point of time without any indicator fluid within the CSF compartment. Four different regions were examined, segmented using FreeSurfer, namely CSF (FIG. 14e), entorhinal cortex (FIG. 14f), hippocampus (FIG. 14g) and Limbic structures (FIG. 14h). The two cohorts of individuals included reference subjects who were close to healthy and a population with a subtype of dementia. For the CSF compartment (FIG. 14e) is shown percentage change in signal unit ratios 1413 versus time 1414, including trend plots for reference subjects 1415 and individuals with dementia 1416. […] Peak for reference subjects occurred after 6-9 hours while after 24 hours for the dementia population.

[3] = human, in vivo
Method: Repeated T1-weighted MRI scans of the intracranial compartment (and neck region for imaging of cervical lymph nodes), either in the presence or absence of the MRI contrast agent gadobutrol (0.5 ml of 1.0 mmol/ml; Gadovist®, Bayer Pharma AG, GE) delivered to the CSF compartment. MRI scans were acquired on a 3 Tesla Philips Ingenia MRI scanner (Philips Medical systems, Best, The Netherlands). The inventors used a dedicated imaging protocol for each region, that was applied to all time points. The following parameters for 3D T1 w imaging of the intracranial compartment were used: repetition time (TR)=5.1 ms (set to minimum), echo time (TE)=2.3 ms (set to minimum), flip angle=8 degrees, field of view=256×256 cm, and matrix=256×256 pixels (reconstructed 512×512). Total 184 over-contiguous slices with 1 mm thickness were sampled and automatically reconstructed to 368 slices and a thickness of 0.5 mm. Each image acquisition lasted 6 minutes and 29 seconds. An automated anatomy recognition protocol based on landmark detection in MRI data (SmartExam™, Philips Medical Systems, Best, The Netherlands) was applied at every time point to secure consistency and reproducibility of the MRI studies. Neck images were obtained in an anatomical standardized coronal plane, using T1 weighted turbo spin echo (TSE) DIXON with the following main image sequence parameters: TR=560 ms, TE=14 ms, flip angle=90 degrees, field of view 250×198 mm, voxel size=1×1×3 mm reconstructed to 0.58×0.58×3 mm^3, gap 0.3 mm, number of slices=30. For detection of neck lymph nodes, we obtained coronal T2 weighted TSE DIXON with TR=ranged 2500-3500 (actual 2500), TE=80 ms, flip angle=90 degrees, field of view 250×200 mm, resolution 0.6×0.79×3 mm^3 reconstructed to 0.58×0.58×3 mm^3, gap 0.3 mm, number of slices=30. Moreover, to ensure same position on the coronal slices between scan times a screen dump showing the placement of the first coronal images was saved and used as a reference for subsequent planning by the radiographer. […]

Time of maximum concentration in blood after gadobutrol present in CSF ([1]; group trend plot: arachnoid cyst (n=4)): 3 to 4 h | Time of maximum concentration in blood after gadobutrol present in CSF ([1]; group trend plot: cerebral cyst (n=4)): 7 to 8 h | Time of maximum concentration in blood after gadobutrol present in CSF ([1]; group trend plots: intracranial hypotension (n=4), idiopathic intracranial hypertension (n=1), iNPH (n=1)): 5 to 6 h | Percentage change in signal unit ratios ([2]; Basal ganglia, 1.5-2 hours): −3 ± 8% | Percentage change in signal unit ratios ([2]; Basal ganglia, 2-4 hours): −6 ± 14% | Percentage change in signal unit ratios ([2]; Basal ganglia, 4-6 hours): 1 ± 25% | Percentage change in signal unit ratios ([2]; Basal ganglia, 6-9 hours): −4 ± 14% | Percentage change in signal unit ratios ([2]; Basal ganglia, 24 hours): 4 ± 18% | Time of peak percentage change in signal unit ratios ([2]; CSF (FIG. 14e), reference subjects and dementia individuals): 6 to 9 h | Percentage change in signal unit ratios ([2]; CSF [24], 1.5-2 hours after intrathecal gadobutrol, 8 individuals): 16 ± 20% | Percentage change in signal unit ratios ([2]; CSF [24], 2-4 hours): 101 ± 116% | Percentage change in signal unit ratios ([2]; CSF [24], 4-6 hours): 354 ± 309% | Percentage change in signal unit ratios ([2]; CSF [24], 6-9 hours): 500 ± 421% | Percentage change in signal unit ratios ([2]; CSF [24], 24 hours): 157 ± 164% | Percentage change in signal unit ratios ([2]; Cerebellar cortex, 1.5-2 hours): 6 ± 6% | Percentage change in signal unit ratios ([2]; Cerebellar cortex, 2-4 hours): 12 ± 27% | Percentage change in signal unit ratios ([2]; Cerebellar cortex, 4-6 hours): 45 ± 58% | Percentage change in signal unit ratios ([2]; Cerebellar cortex, 6-9 hours): 67 ± 80% | Percentage change in signal unit ratios ([2]; Cerebellar cortex, 24 hours): 53 ± 47% | Percentage change in signal unit ratios ([2]; Cerebellar white matter, 1.5-2 hours): 1 ± 9% | Percentage change in signal unit ratios ([2]; Cerebellar white matter, 2-4 hours): −3 ± 14% | Percentage change in signal unit ratios ([2]; Cerebellar white matter, 4-6 hours): 3 ± 23% | Percentage change in signal unit ratios ([2]; Cerebellar white matter, 6-9 hours): 2 ± 19% | Percentage change in signal unit ratios ([2]; Cerebellar white matter, 24 hours): 15 ± 23% | Percentage change in signal unit ratios ([2]; Cerebral cortex (grey matter), 1.5-2 hours): −3 ± 7% | Percentage change in signal unit ratios ([2]; Cerebral cortex (grey matter), 2-4 hours): −1 ± 15% | Percentage change in signal unit ratios ([2]; Cerebral cortex (grey matter), 4-6 hours): 26 ± 44% | Percentage change in signal unit ratios ([2]; Cerebral cortex (grey matter), 6-9 hours): 44 ± 50% | Percentage change in signal unit ratios ([2]; Cerebral cortex (grey matter), 24 hours): 52 ± 54% | Percentage change in signal unit ratios ([2]; Cerebral white matter, 1.5-2 hours): −3 ± 9% | Percentage change in signal unit ratios ([2]; Cerebral white matter, 2-4 hours): −1 ± 18% | Percentage change in signal unit ratios ([2]; Cerebral white matter, 4-6 hours): 26 ± 40% | Percentage change in signal unit ratios ([2]; Cerebral white matter, 6-9 hours): 34 ± 46% | Percentage change in signal unit ratios ([2]; Cerebral white matter, 24 hours): 27 ± 33% | Percentage change in signal unit ratios ([2]; Hippocampus, amygdala, accumbens, entorhinal, 1.5-2 hours): −2 ± 7% | Percentage change in signal unit ratios ([2]; Hippocampus, amygdala, accumbens, entorhinal, 2-4 hours): −1 ± 15% | Percentage change in signal unit ratios ([2]; Hippocampus, amygdala, accumbens, entorhinal, 4-6 hours): 28 ± 38% | Percentage change in signal unit ratios ([2]; Hippocampus, amygdala, accumbens, entorhinal, 6-9 hours): 43 ± 43% | Percentage change in signal unit ratios ([2]; Hippocampus, amygdala, accumbens, entorhinal, 24 hours): 42 ± 39% | Percentage change in signal unit ratios ([2]; Thalamus, 1.5-2 hours): −2 ± 8% | Percentage change in signal unit ratios ([2]; Thalamus, 2-4 hours): −4 ± 15% | Percentage change in signal unit ratios ([2]; Thalamus, 4-6 hours): 5 ± 26% | Percentage change in signal unit ratios ([2]; Thalamus, 6-9 hours): 2 ± 18% | Percentage change in signal unit ratios ([2]; Thalamus, 24 hours): 11 ± 21% | Time of peak percentage change in signal unit ratios ([2]; entorhinal cortex, dementia population): 24 h | Time of peak percentage change in signal unit ratios ([2]; entorhinal cortex, reference subjects): 6 to 9 h | Time of peak percentage change in signal unit ratios ([2]; hippocampus, dementia cohort): 24 h | Time of peak percentage change in signal unit ratios ([2]; hippocampus, reference subjects): 6 to 9 h | Time of peak percentage change in signal unit ratios ([2]; limbic structures, dementia cohort): 24 h | Time of peak percentage change in signal unit ratios ([2]; limbic structures, reference subjects): 6 to 9 h | Increase of indication signal as compared without contrast [3]: 29% | SU enhancement within cervical LNs as proportion of that in the brain [3]: about 40% | Time of peak enhancement in T1 SUs after gadobutrol present within CSF [3]: 24 h
SMILES: O=C([O-])CN1CCN(CC(=O)[O-])CCN([C@H](CO)[C@H](O)CO)CCN(CC(=O)[O-])CC1.[Gd+3] (racemic) [gadobutrol]
